In ChEMBL document CHEMBL1201862, “PubChem BioAssay data set” (2004):
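Five concentrations, 48 hours, 96-well plates. Abbreviation: GI50, concentration required for 50% inhibition of growth.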 Calls of active or inactive are those of the source. Rule as the data show it: active = GI50 up to about 1.1 µM and inactive = higher.

Legend:
Test in all cases: growth of human tumour cells (NCI), 48 h
UO-31 = system: UO-31
786-0 = system: 786-0
RXF 393 = system: RXF 393
CAKI-1 = system: CAKI-1
SF-295 = system: SF-295
XF498 = system: XF498
HCT-15 = system: HCT-15
OVCAR-3 = system: OVCAR-3
M14 = system: M14
NCI-H23 = system: NCI-H23
HOP-62 = system: HOP-62
COLO 205 = system: COLO 205
M19-MEL = system: M19-MEL
Malme-3M = system: Malme-3M
SW-620 = system: SW-620
NCI-H522 = system: NCI-H522
MOLT-4 = system: MOLT-4
U-251 = system: U-251
EKVX = system: EKVX
HT-29 = system: HT-29
SNB-75 = system: SNB-75
UACC-62 = system: UACC-62
OVCAR-8 = system: OVCAR-8
KM-20L2 = system: KM-20L2
A498 = system: A498
TK-10 = system: TK-10
HOP-18 = system: HOP-18
SNB-19 = system: SNB-19
OVCAR-4 = system: OVCAR-4
ACHN = system: ACHN
K562 = system: K562
LXFL 529 = system: LXFL 529
A549 = system: A549
CCRF-CEM = system: CCRF-CEM
HOP-92 = system: HOP-92
SK-MEL-28 = system: SK-MEL-28
SK-MEL-5 = system: SK-MEL-5
RPMI-8226 = system: RPMI-8226
SNB-78 = system: SNB-78
DLD-1 = system: DLD-1
DMS-273 = system: DMS-273
SF-268 = system: SF-268
IGROV-1 = system: IGROV-1
SN12C = system: SN12C
UACC-257 = system: UACC-257
HL-60 = system: HL-60
HCC 2998 = system: HCC 2998
DMS-114 = system: DMS-114
OVCAR-5 = system: OVCAR-5
HCT-116 = system: HCT-116
SF-539 = system: SF-539
NCI-H226 = system: NCI-H226
NCI-H460 = system: NCI-H460
KM12 = system: KM12
SK-MEL-2 = system: SK-MEL-2
SK-OV-3 = system: SK-OV-3
SR = system: SR
LOX IMVI = system: LOX IMVI
RXF 631 = system: RXF 631

Measured: GI50

Cc1ccc(S(=O)(=O)N/N=C(\c2nc3ccc(Cl)cc3nc2O)C(O)c2cccc([N+](=O)[O-])c2)cc1 (stereo not given)
> 100 µM: HCT-15
inactive: UO-31 > 100 µM | 786-0 > 100 µM | RXF 393 > 100 µM | CAKI-1 > 100 µM | SF-295 > 100 µM | XF498 > 100 µM | OVCAR-3 > 100 µM | M14 > 100 µM | NCI-H23 > 100 µM | HOP-62 > 100 µM | COLO 205 > 100 µM | M19-MEL > 100 µM | Malme-3M > 100 µM | SW-620 > 100 µM | NCI-H522 63.4 µM | MOLT-4 > 100 µM | U-251 > 100 µM | EKVX > 100 µM | HT-29 > 100 µM | SNB-75 > 100 µM | UACC-62 > 100 µM | OVCAR-8 > 100 µM | KM-20L2 > 100 µM | A498 > 100 µM | TK-10 > 100 µM | HOP-18 > 100 µM | SNB-19 > 100 µM | OVCAR-4 > 100 µM | ACHN > 100 µM | K562 > 100 µM | LXFL 529 > 100 µM | A549 > 100 µM | CCRF-CEM 52.7 µM | HOP-92 > 100 µM | SK-MEL-28 > 100 µM | SK-MEL-5 > 100 µM | RPMI-8226 71 µM | SNB-78 > 100 µM | DLD-1 > 100 µM | DMS-273 > 100 µM | SF-268 > 100 µM | IGROV-1 > 100 µM | SN12C > 100 µM | UACC-257 > 100 µM | HL-60 > 100 µM | HCC 2998 > 100 µM | DMS-114 > 100 µM | OVCAR-5 > 100 µM | HCT-116 > 100 µM | SF-539 > 100 µM | NCI-H226 > 100 µM | NCI-H460 > 100 µM | KM12 > 100 µM | SK-MEL-2 > 100 µM | SK-OV-3 > 100 µM | SR > 100 µM | LOX IMVI > 100 µM | RXF 631 > 100 µM

O=C1C=CC(=O)c2nc3c(cc21)CCC3
inactive: UO-31 > 100 µM | 786-0 18 µM | RXF 393 19.7 µM | CAKI-1 17 µM | SF-295 > 100 µM | XF498 18.6 µM | OVCAR-3 17.5 µM | M14 16.6 µM | NCI-H23 25 µM | HOP-62 > 100 µM | COLO 205 14.5 µM | M19-MEL 17.2 µM | Malme-3M 17.5 µM | SW-620 16.6 µM | NCI-H522 12.6 µM | MOLT-4 11.6 µM | U-251 78.5 µM | HT-29 45.9 µM | SNB-75 67.5 µM | UACC-62 18.6 µM | OVCAR-8 15.2 µM | TK-10 18.5 µM | HOP-18 14.5 µM | SNB-19 > 100 µM | OVCAR-4 15.7 µM | ACHN 18.8 µM | K562 16.9 µM | LXFL 529 15.5 µM | A549 87.3 µM | CCRF-CEM 5.61 µM | HOP-92 19.5 µM | SK-MEL-28 25.6 µM | SK-MEL-5 20.4 µM | SNB-78 18.5 µM | DLD-1 18.7 µM | DMS-273 20.3 µM | SF-268 17.9 µM | IGROV-1 17.8 µM | SN12C 19.1 µM | UACC-257 19.6 µM | HL-60 4.67 µM | HCC 2998 > 100 µM | DMS-114 18.3 µM | OVCAR-5 > 100 µM | HCT-116 15.5 µM | SF-539 > 10 µM | NCI-H460 32.7 µM | KM12 > 100 µM | SR 5.92 µM | LOX IMVI 15.3 µM | RXF 631 > 100 µM
